The results in this text go back to patent US6482859B1, “Microbicidal N-sulfonylglycin alkynyloxyphenethyl amide derivatives” (priority 1997, dated 2002).

By melting point is commonly meant the temperature of the solid-liquid transition.

For the molecule `CCCS(=O)(=O)N[C@H](C(=O)NCCc1ccc(OCC#Cc2ccc(Cl)cc2)c(OC)c1)C(C)C` [Compound 1.204, (S)-2-(Propylsulfonyl-amino)-3-methyl-butyric acid N-[2-{3-methoxy-4-(3-(4-chlorophenyl)-2-propyn-1-yloxy)-phenyl}-ethyl]-amide], the melting point lay in the range of 131 to 133 °C.
